Laboratory results: US4000297A, “N-p-chlorobenzoyl tryptophane, salts and compositions thereof” (priority 1971, dated 1976)
Where a name gives a salt, the structure may show the parent alone. Read-outs that look alike come from different tables or passages of the source.

Legend:
Assay type in all cases: in vivo
[1] = tested on: gastric secretion; test: Anti-secretive activity in the rat with lig. pylorus, iv; details: read-out: Activity A: anti-secretive activity ED50
[2] = tested on: gastric secretion; test: Anti-secretive activity in the rat by gastric stimulus, oral; details: oral (Table 1), read-out: Activity B: anti-secretive activity ED50
Protocol: *3 Anti-secretive activity in the rat by gastric stimulus, ED50 mg/k

[3] = Acute toxicity (DL50) in the mouse; details: in vivo, iv (Table 1), read-out: DL50 value
From the text: *1 DL50 in the mouse mg/kg iv.
Examples of differences between toxicity (DL50 in
the mouse) by intravenous administration and oral
administration in mg/kg. Variation in therapeutic

[4] = tested on: gastric secretion; test: Comparison of antisecretive activity, rats with tied pylorus, oral aqueous suspension; details: oral
Protocol: (*)The antisecretive activity is defined as the dose in mg/kg of body
weight of the animal, which reduces the gastric secretion by 50%. The
evaluation is effected by considering the decrease in quantity of secrete
gastric juice as compared with controls. Rats of an average weight of 200
± 20 grams are employed of which the lower part of the stomach at the
level of the pylorus is tied to collect the gastric juice during the
indicated periods. The preparations are administered orally in the form o

[5] = rat with lig. pylorus, iv (Table 1)

| Structure (SMILES) | ED50 ([1]; Rattus norvegicus, iv) | ED50 [2] | LD50 [3] | ED50 [1, 5] | LD50 ([3]; iv) | Antisecretive activity (dose which reduces the gastric secretion by 50%) ([4]; 2.5 hrs, 150 min) | Antisecretive activity (dose which reduces the gastric secretion by 50%) ([4]; 5 hrs, 300 min) | Antisecretive activity (dose which reduces the gastric secretion by 50%) ([4]; 10 hrs, 600 min) |
| --- | --- | --- | --- | --- | --- | --- | --- | --- |
| Cc1ccc(C(=O)NC(Cc2c[nH]c3ccccc23)C(=O)O)cc1 (racemic) [Ex.23 (CR555), N-p-toluyl-DL-tryptophane] | 204 mg/kg | 172 mg/kg | 340 mg/kg |  |  |  |  |  |
| O=C(NC(Cc1c[nH]c2ccccc12)C(=O)O)c1ccccc1Cl (racemic) [Ex.51 (CR618), N-o-chlorobenzoyl-DL-tryptophane] |  | 320 mg/kg | 1400 mg/kg | 345 mg/kg |  |  |  |  |
| O=C(NC(Cc1c[nH]c2ccccc12)C(=O)O)OCc1ccc(Cl)cc1 (racemic) [Ex. 4 (CR463), N-p-chloro-carbobenzoxy-DL-tryptophane] | 161 mg/kg | 130 mg/kg |  |  | 217 mg/kg |  |  |  |
| Nc1ccc(C(=O)N[C@@H](Cc2c[nH]c3ccccc23)C(=O)O)cc1 [CR 504 - Calcium salt] |  |  |  |  |  | 1480 mg/kg | 1865 mg/kg | > 2000 mg/kg |
| CCc1ccc(COC(=O)N[C@@H](Cc2c[nH]c3ccccc23)C(=O)O)cc1 [Ex.10 (CR500), N-p-ethyl-carbobenzoxy-L-tryptophane] | 142 mg/kg | 117 mg/kg |  |  | 158 mg/kg |  |  |  |
| O=C(N[C@@H](Cc1c[nH]c2ccccc12)C(=O)O)OCc1ccc(C(F)(F)F)cc1 [Ex.11 (CR515), N-p-trifluoromethyl-carbobenzoxy-L-tryptophane] | 112 mg/kg | 92 mg/kg |  |  | 175 mg/kg |  |  |  |
| O=C(N[C@@H](Cc1c[nH]c2ccccc12)C(=O)O)OCc1ccc(Cl)cc1Cl [Ex.13 (CR470), N-(2,4-dichloro)-carbobenzoxy-L-tryptophane] |  | 97 mg/kg |  | 130 mg/kg | 170 mg/kg |  |  |  |
| O=C(N[C@@H](Cc1c[nH]c2ccccc12)C(=O)O)OCc1c(Cl)cccc1Cl [Ex.14 (CR495), N-(2,6-dichloro)-carbobenzoxy-L-tryptophane] |  | 108 mg/kg |  | 132 mg/kg | 268 mg/kg |  |  |  |
| O=C(N[C@@H](Cc1c[nH]c2ccccc12)C(=O)O)OCc1cccc(Cl)c1Cl [Ex.15 (CR499), N-(2,3-dichloro)-carbobenzoxy-L-tryptophane] |  | 60 mg/kg |  | 100 mg/kg | 175 mg/kg |  |  |  |
| O=C(N[C@@H](Cc1c[nH]c2ccccc12)C(=O)O)OCc1ccc(Cl)c(Cl)c1 [Ex.16 (CR469), N-(3,4-dichloro)-carbobenzoxy-L-tryptophane] | 137 mg/kg | 104 mg/kg |  |  | 208 mg/kg |  |  |  |
| Cc1ccc(COC(=O)N[C@@H](Cc2c[nH]c3ccccc23)C(=O)O)cc1Cl [Ex.17 (CR497), N-(3-chloro-4-methyl)-carbobenzoxy-L-tryptophane] | 231 mg/kg | 196 mg/kg |  |  | 190 mg/kg |  |  |  |
| O=C(N[C@@H](Cc1c[nH]c2ccccc12)C(=O)O)c1ccc(Br)cc1 [Ex.19 (CR503), N-p-bromo-benzoyl-L-tryptophane] | 111 mg/kg | 85 mg/kg | 360 mg/kg |  |  |  |  |  |
| O=C(N[C@@H](Cc1c[nH]c2ccccc12)C(=O)O)c1ccc(C(F)(F)F)cc1 [Ex.20 (CR505), N-p-trifluoromethyl-benzoyl-L-tryptophane] | 160 mg/kg | 110 mg/kg | 210 mg/kg |  |  |  |  |  |
| Cc1ccc(C(=O)N[C@H](Cc2c[nH]c3ccccc23)C(=O)O)cc1 [Ex.22 (CR556), N-p-toluyl-D-tryptophane] | 354 mg/kg | 190 mg/kg | 365 mg/kg |  |  |  |  |  |
| N#Cc1ccc(C(=O)N[C@@H](Cc2c[nH]c3ccccc23)C(=O)O)cc1 [Ex.24 (CR512), N-p-cyano-benzoyl-L-tryptophane] | 500 mg/kg | 360 mg/kg | 1450 mg/kg |  |  |  |  |  |
| O=C(N[C@@H](Cc1c[nH]c2ccccc12)C(=O)O)c1ccc(F)cc1 [Ex.25 (CR506), N-p-fluoro-benzoyl-L-tryptophane] | 223 mg/kg | 295 mg/kg | 655 mg/kg |  |  |  |  |  |
| COc1ccc(C(=O)N[C@@H](Cc2c[nH]c3ccccc23)C(=O)O)cc1 [Ex.26 (CR507), N-p-methoxy-benzoyl-L-tryptophane] |  | 494 mg/kg | 1000 mg/kg | 437 mg/kg |  |  |  |  |
| O=C(O)c1ccc(C(=O)N[C@@H](Cc2c[nH]c3ccccc23)C(=O)O)cc1 [Ex.27 (CR508), N-p-carboxy-benzoyl-L-tryptophane] |  | 406 mg/kg | 900 mg/kg | 514 mg/kg |  |  |  |  |
| O=C(N[C@@H](Cc1c[nH]c2ccccc12)C(=O)O)c1ccc([N+](=O)[O-])cc1 [Ex.29 (CR502), N-p-nitro-benzoyl-L-tryptophane. C2 H5 OH] |  | 270 mg/kg | 806 mg/kg | 339 mg/kg |  |  |  |  |

| Structure (SMILES) | ED50 ([1]; Rattus norvegicus, iv) | ED50 [2] | LD50 [3] | ED50 [1, 5] | LD50 ([3]; iv) | Antisecretive activity (dose which reduces the gastric secretion by 50%) ([4]; 2.5 hrs, 150 min) | Antisecretive activity (dose which reduces the gastric secretion by 50%) ([4]; 5 hrs, 300 min) | Antisecretive activity (dose which reduces the gastric secretion by 50%) ([4]; 10 hrs, 600 min) |
| --- | --- | --- | --- | --- | --- | --- | --- | --- |
| O=C(N[C@@H](Cc1c[nH]c2ccccc12)C(=O)O)c1cccc(Cl)c1 [Ex.30 (CR546), N-m-chloro-benzoyl-L-tryptophane] | 210 mg/kg | 147 mg/kg | 560 mg/kg |  |  |  |  |  |
| O=C(N[C@@H](Cc1c[nH]c2ccccc12)C(=O)O)OCc1cccc2ccccc12 [Ex.31 (CR514), N-(carbo-alpha-naphthyl-methoxy)-L-tryptophane] |  | 94 mg/kg |  | 128 mg/kg | 160 mg/kg |  |  |  |
| CCOC(=O)c1ccc(NC(=O)[C@H](Cc2c[nH]c3ccccc23)NC(=O)OCc2ccccc2)cc1 [Ex.33 (CR401), Ethyl-N-carbobenzoxy-L-tryptophyl-p-aminobenzoate] |  | 320 mg/kg |  | 470 mg/kg | 1000 mg/kg |  |  |  |
| O=C(N[C@@H](Cc1c[nH]c2ccccc12)C(=O)Nc1ccc(C(=O)Oc2ccc(Cl)cc2Cl)cc1)OCc1ccccc1 [Ex.34 (CR432), 2,4-Dichlorophenyl-N-carbobenzoxy-L-tryptophyl-p-aminobenzoate] |  | 310 mg/kg |  | 370 mg/kg | 1000 mg/kg |  |  |  |
| O=C(N[C@@H](Cc1c[nH]c2ccccc12)C(=O)Nc1ccc(C(=O)Oc2ccccc2)cc1)OCc1ccccc1 [Ex.35 (CR411), Phenyl-N-carbobenzoxy-L-tryptophyl-p-aminobenzoate] |  | 460 mg/kg |  | 610 mg/kg | 1000 mg/kg |  |  |  |
| O=C(N[C@@H](Cc1c[nH]c2ccccc12)C(=O)Nc1ccc(C(=O)OCc2ccccc2)cc1)OCc1ccccc1 [Ex.36 (CR430), Benzyl-N-carbobenzoxy-L-tryptophyl-p-aminobenzoate] |  | 520 mg/kg |  | 690 mg/kg | 1000 mg/kg |  |  |  |
| CCOC(=O)c1ccc(NC(=O)[C@H](Cc2c[nH]c3ccccc23)NC(=O)c2ccccc2)cc1 [Ex.37 (CR402), Ethyl-N-benzoyl-L-tryptophyl-p-aminobenzoate] |  | 460 mg/kg | 1000 mg/kg | 310 mg/kg |  |  |  |  |
| COC(=O)Cc1ccc(NC(=O)[C@H](Cc2c[nH]c3ccccc23)NC(=O)OCc2ccccc2)cc1 [Ex.38 (CR417), Methyl-N-carbobenzoxy-L-tryptophyl-p-aminophenylacetate] |  | 300 mg/kg |  | 300 mg/kg | 1000 mg/kg |  |  |  |
| O=C(Cc1ccc(NC(=O)[C@H](Cc2c[nH]c3ccccc23)NC(=O)OCc2ccccc2)cc1)OCc1ccccc1 [Ex.39 (CR419), Benzyl-N-carbobenzoxy-L-tryptophyl-p-aminophenylacetate] |  | 350 mg/kg |  | 430 mg/kg | 1000 mg/kg |  |  |  |
| COC(=O)Cc1ccc(NC(=O)[C@H](Cc2c[nH]c3ccccc23)NC(=O)c2ccccc2)cc1 [Ex.40 (CR418), Methyl-N-benzoyl-L-tryptophyl-p-aminophenylacetate] |  | 180 mg/kg | 1000 mg/kg | 290 mg/kg |  |  |  |  |
| O=C(O)c1ccc(NC(=O)[C@H](Cc2c[nH]c3ccccc23)NC(=O)c2ccccc2)cc1 [Ex.42 (CR404), N-benzoyl-L-tryptophyl-p-aminobenzoic acid] |  | 220 mg/kg | 500 mg/kg | 284 mg/kg |  |  |  |  |
| O=C(N[C@@H](Cc1c[nH]c2ccccc12)C(=O)Nc1ccc(C(=O)O)cc1)OCc1ccccc1 [Ex.43 (CR422), N-Carbobenzoxy-L-tryptophyl-p-aminobenzoic acid] |  | 180 mg/kg |  | 321 mg/kg | 460 mg/kg |  |  |  |
| O=C(O)Cc1ccc(NC(=O)[C@H](Cc2c[nH]c3ccccc23)NC(=O)OCc2ccccc2)cc1 [Ex.44 (CR435), N-carbobenzoxy-L-tryptophyl-p-aminophenylacetic acid] |  | 210 mg/kg |  | 370 mg/kg | 980 mg/kg |  |  |  |
| O=C(Cc1ccc(Cl)cc1)N[C@@H](Cc1c[nH]c2ccccc12)C(=O)O [Ex.47 (CR584), N-p-chlorophenylacetyl-L-tryptophane] |  | 270 mg/kg | 545 mg/kg | 487 mg/kg |  |  |  |  |
| CN(C)CCOC(=O)[C@H](Cc1c[nH]c2ccccc12)NC(=O)OCc1ccc(Cl)cc1 [Ex.48 (CR583), Dimethylaminoester of N-p-chlorocarbobenzoxy-L-trytophane hydrochloride] |  | 121 mg/kg |  | 170 mg/kg | 210 mg/kg |  |  |  |
| CCN(CC)CCOC(=O)[C@H](Cc1c[nH]c2ccccc12)NC(=O)c1ccc(C)cc1 [Ex.49 (CR636), Diethylaminoethylester of N-p-toluyl-L-tryptophane oxalate] |  | 120 mg/kg | 320 mg/kg | 160 mg/kg |  |  |  |  |
| O=C(N[C@H](Cc1c[nH]c2ccccc12)C(=O)O)c1ccccc1Cl [Ex.52 (CR637), N-o-chlorobenzoyl-D-tryptophane] |  | 390 mg/kg | 1530 mg/kg | 440 mg/kg |  |  |  |  |
| O=C(N[C@@H](Cc1c[nH]c2ccccc12)C(=O)O)OCc1cccc(Cl)c1 [Ex. 2 (CR527), N-m-chloro-carbobenzoxy-L-tryptophane] | 176 mg/kg | 147 mg/kg |  |  | 450 mg/kg |  |  |  |
